For experiment [1], the system named is Pseudomonas aeruginosa AGR 18 and MR23 multiresistant. Put plainly: MIC against multi-drug resistant P. aeruginosa. The class given is cell-based. As for the experimental part:
(§1) In this example, the efficacy of Examples 1, 10 and 13 were tested against multi-drug resistant microorganisms.
(§2) Bacterial strains tested: Pseudomonas aeruginosa AGR 18 and MR23 multiresistant. Fungal strain: Candida glabrata CG15, VT18 resistant to Amphotericin B and Voriconazole Microbiological efficacy was determined as the Minimal Inhibitory Concentration.
The bactericidal activities of Examples 1, 10 and 13 against multiresistant P. aeruginosa isolates are shown below in Table 17.

The subject of experiment [2] is MSSA strain ATCC 29213. In words: MIC by broth macrodilution against S. aureus isolates, MSSA strain. It counts as cell-based. To be noted: Staphylococcus aureus, read-out: MSSA strain MIC. From the text: The cultures used in this study were bacterial clinical isolates from human infections.
Experiment [3] deals with Vancomycin resistant S. aureus (VRSA). Put plainly: MIC by broth macrodilution against S. aureus isolates. It counts as cell-based. The note with it: Staphylococcus aureus. As for the experimental part: In this example, the efficacy of the inventive preparations was tested against Vancomycin resistant S. aureus (VRSA)
The MICs were determined using a broth macrodilution method with cation-adjusted Mueller-Hinton broth II (Becton Dickinson) at standard inoculum (10^5 cfu/mL) following the CLSI recommendations. The cultures used in this study were bacterial clinical isolates from human infections.

The test system of experiment [4] is Candida glabrata CG15, VT18. Put plainly: MIC against multiresistant C. glabrata. The class given is cell-based. As for the experimental part:
as §1, §2
The bactericidal activities of Examples 1, 10 and 13 against multiresistant C. glabrata isolates are shown below in Table 18.

The test system of experiment [5] is P. aeruginosa. Put plainly: MIC by broth macrodilution, isolates from patients with cystic fibrosis, Example 22. It counts as cell-based. The note with it: Pseudomonas aeruginosa, CLSI, read-out: MIC against P. aeruginosa. As for the experimental part: (§3) The potency of Example Nos. 1, 5 and 10 were examined against bacterial isolates from patients with cystic fibrosis. The MICs values were determined by the broth macrodilution method according to the CLSI guideline. For the in vivo studies, 8-week-old C57BL/6 mice were intranasally infected with P. aeruginosa MR-6 (2×10^7 cfu/mouse)+A. fimigatus (6×10^6 cfu/mouse).

The test system of experiment [6] is A. fumigatus. In words: Animal model of respiratory infection, mortality. The class given is in vivo, C57BL/6 mice. To be noted: mice, intranasal infection; treatment 12 h after infection by intranasal inhalation at 32×MIC. As for the experimental part:
(§4) In this example the efficacy of the preparations were tested against an animal model of mixed respiratory infection.
as §3

For experiment [7], the system named is P. aeruginosa. In words: Animal model of respiratory infection, mortality. The class given is in vivo, C57BL/6 mice. To be noted: mice, intranasal infection; treatment 12 h after infection by intranasal inhalation at 32×MIC. As for the experimental part: as §4, §3
For experiment [8], the system named is A. fumigatus. Put plainly: MIC by broth macrodilution, Example 22. It counts as cell-based, Aspergillus fumigatus. To be noted: CLSI. Here is the method: as §3
Experiment [9] relates to P. aeruginosa + A. fumigatus. Put plainly: Animal model of mixed respiratory infection, mortality. It counts as in vivo, C57BL/6 mice. To be noted: mice, intranasal infection; treatment 12 h after infection by intranasal inhalation at 32×MIC. As for the experimental part:
as §4, §3

The subject of experiment [10] is Ehrlich solid tumor. In words: Ehrlich solid tumor, combined effect with anticancer drugs. The class given is in vivo. The note with it: combination study, 0.2 ml of 0.01% solution intraperitoneally. Here is the method:
In this experiment, a model of continuous Ehrlich solid tumor was used to study combined effect of claimed product with anticancer drugs. The drugs were administered simultaneously with the tumor transplantation (0.2 ml of 0.01% solution) intraperitoneally. The control animals received water (used as solvent for the drugs tested).

Where [11] appears, read: VT-A-199, read-out: VRSA strain MIC.
Setting [12] is: VT-V-18, read-out: VRSA strain MIC.
Setting [13] is: VT-V-25, read-out: VRSA strain MIC.

Converted amounts (≈) assume the structure as drawn. Like-named read-outs stand apart in the source and are kept apart here.

Consider `NCC[C@H](O)C(=O)N[C@@H]1C[C@H](N)[C@@H](O[C@H]2O[C@H](CN)[C@@H](O)[C@H](O)[C@H]2O)[C@H](O)[C@H]1O[C@H]1O[C@H](CO)[C@@H](O)[C@H](N)[C@H]1O` [Amikacin], for which the MIC in experiment [1] (P. aeruginosa strain AGR 18) is 128 µg/mL (≈ 219 µM); in experiment [1] (P. aeruginosa strain MR23), 256 µg/mL (≈ 437 µM).
In the case of `CCC[C@@H]1C[C@@H](C(=O)N[C@@H]([C@H]2O[C@H](SC)[C@H](O)[C@@H](O)[C@H]2O)[C@H](C)Cl)N(C)C1` [Clindamycin], the MIC in experiment [2] (ATCC 29213) turned out to be 0.125 µg/mL (≈ 0.294 µM); in [3] (setting [11]), 2 µg/mL (≈ 4.71 µM); in [3] (setting [12]), 4 µg/mL (≈ 9.41 µM); in experiment [3] (setting [13]), 2 µg/mL (≈ 4.71 µM).
In the case of `C[C@@H]1[C@H](O)[C@@H](C)/C=C/C=C/C=C/C=C/C=C/C=C/C=C/[C@H](O[C@@H]2O[C@H](C)[C@@H](O)[C@H](N)[C@@H]2O)C[C@@H]2O[C@](O)(C[C@@H](O)C[C@@H](O)[C@H](O)CC[C@@H](O)C[C@@H](O)CC(=O)O[C@H]1C)C[C@H](O)[C@H]2C(=O)O` [AMB], the Minimal inhibitory concentration in experiment [4] (C. glabrata CG1514053) is 4 µg/mL (≈ 4.33 µM); in experiment [4] (C. glabrata VT18), 8 µg/mL (≈ 8.66 µM).
Taken in the same sequence, the figures for `C[C@@H](c1ncncc1F)[C@](O)(Cn1cncn1)c1ccc(F)cc1F` [VRZ] were 8 µg/mL (≈ 22.9 µM) and 4 µg/mL (≈ 11.5 µM).
In the case of `CC1(C)S[C@@H]2[C@H](NC(=O)[C@H](N)c3ccccc3)C(=O)N2[C@H]1C(=O)O` [Ampicillin], the MIC amounted to 0.25 µg/mL (≈ 0.715 µM) in experiment [2] (ATCC 29213), 16 µg/mL (≈ 45.8 µM) in experiment [3] (setting [11]), 64 µg/mL (≈ 183 µM) in experiment [3] (setting [12]) and 32 µg/mL (≈ 91.6 µM) in experiment [3] (setting [13]).
For the compound `C[C@H]1[C@H](NC(=O)/C(=N\OC(C)(C)C(=O)O)c2csc(N)n2)C(=O)N1S(=O)(=O)O` [Aztreonam, aztreonam], the MIC amounted to 64 µg/mL (≈ 147 µM) in experiment [5], 32 µg/mL (≈ 73.5 µM) in [1] (P. aeruginosa strain AGR 18) and 128 µg/mL (≈ 294 µM) in [1] (P. aeruginosa strain MR23). Further, in experiment [6], the “Percent mortality 96 h post infection, A. fumigatus” value was found to be 30%. Besides, the “Percent mortality 96 h post infection, P. aeruginosa” value in experiment [7] came out at 20%. Also, the “MIC against A. fumigatus” value in experiment [8] was “not active”. Moreover, the “Percent mortality 96 h post infection, P. aeruginosa + A. fumigatus” value in experiment [9] is listed as 60%.
Regarding `CC(C)(O/N=C(\C(=O)N[C@@H]1C(=O)N2C(C(=O)[O-])=C(C[n+]3ccccc3)CS[C@H]12)c1csc(N)n1)C(=O)O` [Ceftazidime], the MIC in experiment [1] (P. aeruginosa strain AGR 18) and in experiment [1] (P. aeruginosa strain MR23) was 32 µg/mL (≈ 58.5 µM) each time.
As to `CN[C@H](CC(C)C)C(=O)N[C@H]1C(=O)N[C@@H](CC(N)=O)C(=O)N[C@H]2C(=O)N[C@H]3C(=O)N[C@H](C(=O)N[C@H](C(=O)O)c4cc(O)cc(O)c4-c4cc3ccc4O)[C@H](O)c3ccc(c(Cl)c3)Oc3cc2cc(c3O[C@@H]2O[C@H](CO)[C@@H](O)[C@H](O)[C@H]2O[C@H]2C[C@](C)(N)[C@H](O)[C@H](C)O2)Oc2ccc(cc2Cl)[C@H]1O` [Vancomycin], the MIC in [2] stood at 0.5 µg/mL (≈ 0.345 µM); in experiment [3] (read-out: VRSA strain MIC, VT-A-199), 16 µg/mL (≈ 11 µM); in experiment [3] (read-out: VRSA strain MIC, VT-V-18) it was 16 µg/mL (≈ 11 µM); in experiment [3] (read-out: VRSA strain MIC, VT-V-25), 1 µg/mL (≈ 0.69 µM).
For the compound `CCN1CCN(C(=O)N[C@@H](C(=O)N[C@@H]2C(=O)N3[C@@H]2SC(C)(C)[C@@H]3C(=O)O)c2ccccc2)C(=O)C1=O` [Piperacillin], the figures for the MIC in experiment [1] (P. aeruginosa strain AGR 18) and in experiment [1] (P. aeruginosa strain MR23) were above 256 µg/mL and 256 µg/mL (≈ 495 µM), respectively.
With `C[C@@H](O)[C@H]1C(=O)N2C(C(=O)O)=C(S[C@@H]3CN[C@H](C(=O)N(C)C)C3)[C@H](C)[C@H]12` [Meropenem], the MIC in experiment [2] (ATCC 29213) amounted to 0.125 µg/mL (≈ 0.326 µM); in experiment [3] (setting [11]), 128 µg/mL (≈ 334 µM); in experiment [3] (setting [12]) it was 32 µg/mL (≈ 83.4 µM); in experiment [3] (setting [13]) it was 128 µg/mL (≈ 334 µM).
On to `NC[C@H]1O[C@H](O[C@H]2[C@H](O)[C@@H](O[C@H]3O[C@H](CO)[C@@H](O)[C@H](N)[C@H]3O)[C@H](N)C[C@@H]2N)[C@H](N)C[C@@H]1O` [Tobramycin, tobramycin], for which the MIC was 16 to 32 µg/mL (≈ 34.2 to 68.4 µM) in experiment [5], 32 µg/mL (≈ 68.4 µM) in experiment [1] (P. aeruginosa strain AGR 18) and 32 µg/mL (≈ 68.4 µM) in experiment [1] (P. aeruginosa strain MR23). Besides, the “Percent mortality 96 h post infection, A. fumigatus” value in experiment [6] is 40%. For the same compound, the “Percent mortality 96 h post infection, P. aeruginosa” value in experiment [7] is recorded as 20%. The “MIC against A. fumigatus” value in [8] is “not active”. Besides, the “Percent mortality 96 h post infection, P. aeruginosa + A. fumigatus” value in experiment [9] came out at 50%.
On to `N.N.[Cl][Pt][Cl]` [Cisplatin], for which the “Tumor size, 7 days after transplantation” value in [10] (7 days) is on record as 72.4 mm^3. Also, the “Tumor size, 11 days after transplantation” value in experiment [10] (11 days) is on record as 180.7 mm^3. Further, in [10] (14 days), the “Tumor size, 14 days after transplantation” value is 243.3 mm^3. Further, in [10] (18 days), the “Tumor size, 18 days after transplantation” value is given as 345.8 mm^3. Besides, the “Tumor size, 22 days after transplantation” value in experiment [10] (22 days) is reported as 548.2 mm^3. For the same compound, the “Tumor size, 25 days after transplantation” value in [10] (25 days) worked out at 607.7 mm^3.

The term MIC denotes the lowest concentration found to suppress growth.

The record behind these values is patent US11285170B2, “Fractionated antimicrobial compositions and use thereof” (priority 2017, dated 2022).
